According to PMC12668310, “High‐Throughput Synthesis and Screening of a Cyanimide Library Identifies Selective Inhibitors of ISG15‐Specific Protease mUSP18” (Angewandte Chemie (International Ed. in English), 2025):

Assays:
[1] = test system: cellular ISGylation in EL4 cells; assay: ISGylation accumulation in mouse IFN-β-stimulated EL4 cells (anti-mISG15 western blot); format: cell-based; settings: 4 h treatment, anti-mISG15 blot
Protocol: (§1) Figure 6 Inhibition of murine USP18 activity in living cells. a) Gel‐based ABPP potency assessment using a Rho‐mISG15ct‐PA probe in HEK293T cells overexpressing Flag‐mUSP18. At 24 h following transfection, cells were incubated with DMSO or increasing concentrations of indicated inhibitors for 4 h, lysed, and treated with Rho‐mISG15ct‐PA probe. Top panel: fluorescence scan. Middle panel: anti‐Flag western blot. Bottom panel: anti‐GAPDH western blot confirms equal loading. b) Accumulation of ISGylation in mouse IFN‐β‐stimulated EL4 cells. At 24 h following mouse IFN‐β treatment, cells were incubated with DMSO or increasing concentrations of indicated inhibitors for 4 h, lysed, and treated with Rho‐mISG15ct‐PA probe. Top panel: anti‐mISG15 western blot. Middle panel: fluorescence scan. Bottom panel: anti‐β‐actin western blot confirms equal loading.
Ultimately, we were interested in whether USP18 inhibitor treatment could result in a relevant phenotype in cells. USP18 is the major deISGylase to remove ISG15 from target proteins, and genetic inactivation of USP18 isopeptidase activity leads to enhanced ISGylation in vivo and in cells.^[ [26] ^] We therefore examined whether the USP18 inhibitors enhance cellular ISGylation. Accordingly, EL4 cells were stimulated with IFN‐β to induce the ISG15 machinery, prior to treatment with the inhibitors. After cell lysis and SDS‐PAGE, ISGylated proteins were stained by immunoblotting with an ISG15 antibody (Figure 6b, top panel). […] To confirm inhibition of endogenous USP18 in these experiments, samples were post‐lysis treated with Rho‐mISG15ct‐PA probe.
Generation of ISGylation and in-cell inhibition assay
Mouse EL4 cells were stimulated with 300 U/mL mouse IFN-β. At 24 hours following stimulation, cells were incubated with indicated compounds at the indicated final concentrations at 37 °C for 4 hours, then washed twice with PBS and harvested for further […]
Activity-based probe labelling
The in-cell inhibition of DUBs and mUSP18 was assessed using activity-based probe labelling assays. In brief, cell pellets were resuspended in HR buffer (50 mM Tris-HCl, 5 mM MgCl 2, 250 mM sucrose, 2 mM TCEP and a Protease inhibitor tablet (Roche), pH 7.4), and lysed by sonication (Bioruptor, Diagenode, high intensity for 10 minutes with an ON/OFF cycle of 30 seconds) at 4°C. 40 μg clarified cell lysate was incubated with Rhodamine-mISG15ct-propargylamide probe[1] (final concentration 1 μM) or Rhodamine-Ubiquitin-propargylamide probe[13] (final concentration 1 μM) at 37 °C for 30 min. Reactions were stopped by the addition of LDS (lithium dodecyl sulfate) sample buffer (Invitrogen Life Technologies, Carlsbad, CA, USA) containing 2.5% β-mercaptoethanol, followed by boiling for 7 minutes.
SDS-PAGE, in-gel fluorescence scanning, and immunoblotting
Samples were resolved on precast Bis-Tris NuPAGE Gels (Invitrogen, including 4-12%, and 10% for different samples) using MOPS buffer (Invitrogen Life Technologies, Carlsbad, CA, USA). For fluorescence scan, labeled enzymes were visualized by in-gel fluorescence using a Typhoon FLA 9500 imaging system (GE Healthcare Life Sciences) (Rhodamine channel for probe, Cy5 channel for protein marker).
For immunoblotting, proteins were transferred to a nitrocellulose membrane (Protan BA85, 0.45 μm, GE Healthcare) at 300 mA for 3 hours. […]

Flag-mUSP18 = biological target: T1, Flag-mUSP18 (Mus musculus, UniProt Q9WTV6); assay: Gel-based ABPP with Rho-mISG15ct-PA probe in HEK293T cells overexpressing Flag-mUSP18; format: cell-based, murine; settings: live HEK293T cells, Flag-mUSP18, 4 h treatment
T1 construct: expressed in transfected cells; host or cells: HEK293T
T1 sequence (Q9WTV6 1-368): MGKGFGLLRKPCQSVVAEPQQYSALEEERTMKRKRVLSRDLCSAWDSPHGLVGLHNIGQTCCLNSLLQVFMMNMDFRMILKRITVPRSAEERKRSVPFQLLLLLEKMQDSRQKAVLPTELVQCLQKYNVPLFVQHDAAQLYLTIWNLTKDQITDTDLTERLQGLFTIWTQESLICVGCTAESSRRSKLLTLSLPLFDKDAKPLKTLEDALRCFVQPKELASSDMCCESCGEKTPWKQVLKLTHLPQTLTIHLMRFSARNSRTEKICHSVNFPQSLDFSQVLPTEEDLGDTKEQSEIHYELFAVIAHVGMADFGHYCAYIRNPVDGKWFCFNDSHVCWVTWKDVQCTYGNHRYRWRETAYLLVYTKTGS
Protocol: To assess the cellular target engagement and cell permeability of these inhibitors, we performed activity‐based protein profiling. […] Following washing and cell lysis, cell extracts were incubated with a Rhodamine‐tagged murine ISG15 C‐terminal domain propargylamide activity‐based probe (Rho‐mISG15ct‐PA), which covalently labels the active site cysteine of active deISGylating enzymes.^[ [41] ^] The labelled enzymes were resolved by SDS‐PAGE and imaged by in‐gel fluorescence, where inhibition of USP18 is reflected by disappearance of the USP18‐probe‐labelled bands around 55 kDa (Figures 6a, S11A). All three inhibitors engaged with cellular mUSP18 in a dose‐dependent manner, with BB07CA902 and BB07CA28 showing efficient inhibition already at 1 µM concentration. […] The in‐cell selectivity of these inhibitors for USP18 over DUBs was confirmed in a similar ABPP experiment using a Rhodamine‐tagged ubiquitin propargylamide probe (Rho‐Ub‐PA),^[ [42] ^] which labels the active site cysteine of all active cysteine DUBs.
as §1, with “Top panel: anti‐mISG15 western blot.” left out, “Bottom panel: anti‐β‐actin western blot confirms equal loading.” left out
Samples were then diluted 3-fold with water and analyzed by mass spectrometry by injecting 2 μL into a Waters XEVO-G2 XS Q-TOF mass spectrometer equipped with an electrospray ion source in positive mode (capillary voltage 1.2 kV, desolvation gas flow 900 L/h, T = 60 °C) with a resolution of R = 26,000. […]

mUSP18 [2] = biological target: T2, mUSP18 (Mus musculus, UniProt Q9WTV6); assay: IC50 determination, fluorogenic ISG15CT-Rho-morpholine activity assay; format: biochemical, murine; settings: pure (re-synthesized) compound; mean ± SD n = 3
T2 construct: (46-368); His-tag (N); made in house
T2 sequence (Q9WTV6 46-368): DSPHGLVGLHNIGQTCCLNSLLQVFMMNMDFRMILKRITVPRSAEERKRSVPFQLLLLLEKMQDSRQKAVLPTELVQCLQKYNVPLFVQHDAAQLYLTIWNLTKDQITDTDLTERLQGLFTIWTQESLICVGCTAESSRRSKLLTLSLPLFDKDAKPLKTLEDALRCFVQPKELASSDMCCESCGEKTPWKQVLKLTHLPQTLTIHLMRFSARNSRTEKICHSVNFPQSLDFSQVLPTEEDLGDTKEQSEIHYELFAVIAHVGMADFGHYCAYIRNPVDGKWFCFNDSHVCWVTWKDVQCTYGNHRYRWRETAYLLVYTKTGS

12 Ub(‐like) proteases = assay: High-throughput screening, whole panel of twelve enzymes; format: biochemical; settings: crude mixture, 1.25 µM; enzymes other than mUSP18
Protocol: Since the in‐plate synthesis was conducted in 1536‐well Echo plates, the compounds could readily be transferred from these plates into 1536‐well assay plates using acoustic liquid dispensing (Figure 2a) and subjected to HTS. We screened the whole 7536 compound library against a panel of twelve enzymes, including three DUBs from the UCH family, two DUBs from the OTU family, five DUBs from the USP family, plus ISG15 protease USP18, and SUMO protease SENP1. Each compound was tested at a single dose of 1.25 µM, assuming full conversion (10 mM in DMSO of the formed products) during the in‐plate synthesis, using the fluorogenic assay described above. […] The compounds are sorted by the amine building blocks (BB1‐16), and within each BB, sorted by carboxylic acid (CA1‐471), thereby providing a comprehensive and systematic overview of the overall inhibition by each BB and CA combination. Some interesting patterns can be obtained from this map. […] Indeed, BB10 is the privileged scaffold for UCHL1 as it originates from UCHL1 inhibitor 5 (Figure 1). […]
The percentage inhibition was calculated for each well using the […]
Where FIx is the fluorescence intensity of each well, FIpos is the average fluorescence intensity of the positive (NEM) control wells, and FIneg is the average fluorescence intensity of the negative (DMSO) control wells.

mUSP18 [3] = biological target: T2, mUSP18; assay: High-throughput screening, ISG15ct-RhoMP, single dose 1.25 µM; format: biochemical, murine; settings: crude in-plate synthesized compound, 1.25 µM assuming full conversion; read-out: %inhibition mUSP18

Cc1cc(C(=O)N[C@@H]2C[C@@H]3CN(C#N)C[C@@H]3C2)ccc1C(C)C [BB06CA902]
effect on cellular ISGylation [1]: hardly affected ISGylation
concentration at which inhibition of mUSP18 probe labelling is observed (Flag-mUSP18): 100 µM

N#CN1C[C@H]2C[C@H](NC(=O)CCC3CCCCC3)C[C@H]2C1 [BB07CA48]
IC50 (mUSP18 [2]): 240 ± 9.9 nM
inhibition of all other enzymes tested (12 Ub(‐like) proteases): negligible inhibition
inhibition at 1.25 µM (mUSP18 [3]): 75%
